In patent US7709500B2, “Chemical compounds” (AstraZeneca AB, priority 2002, dated 2010):
Structures can show the parent of a compound that is named as a salt.

Key:
CCR3 = target: T1, CCR3 (Homo sapiens, UniProt P51677); experiment: Human eosinophil chemotaxis (eotaxin mediated); format: cell-based; conditions: read-out: % inhibition at 3 nM eotaxin (1 uM compound), human eosinophils
T1 construct: Human eosinophils were isolated from EDTA anticoagulated peripheral blood; endogenous in cells; host or cells: human peripheral blood eosinophils
T1 sequence (P51677 1-355): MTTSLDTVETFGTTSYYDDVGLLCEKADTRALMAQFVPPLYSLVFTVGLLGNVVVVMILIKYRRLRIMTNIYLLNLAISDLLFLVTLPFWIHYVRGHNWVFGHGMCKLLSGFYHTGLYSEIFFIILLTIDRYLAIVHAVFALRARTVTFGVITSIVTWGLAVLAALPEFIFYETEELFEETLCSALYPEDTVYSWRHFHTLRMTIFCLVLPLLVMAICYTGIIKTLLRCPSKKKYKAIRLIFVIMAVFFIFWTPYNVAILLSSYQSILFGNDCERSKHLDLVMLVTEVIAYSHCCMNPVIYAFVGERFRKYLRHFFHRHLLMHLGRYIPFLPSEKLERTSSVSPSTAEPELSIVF

human H1 receptor = target: T2, human H1 receptor (Homo sapiens, UniProt P35367); experiment: Histamine H1 receptor binding, competition displacement of [3H]-pyrilamine; conditions: 1 nM [3H]-pyrilamine; membranes from recombinant CHO-K1 cells expressing the human H1 receptor; read-out: H1 pKi/[1328_S] (converted)
T2 construct: purchased Euroscreen SA, Brussels, Belgium ES-390-M; host or cells: recombinant CHO-K1 cells (membranes)
T2 sequence (P35367 whole entry): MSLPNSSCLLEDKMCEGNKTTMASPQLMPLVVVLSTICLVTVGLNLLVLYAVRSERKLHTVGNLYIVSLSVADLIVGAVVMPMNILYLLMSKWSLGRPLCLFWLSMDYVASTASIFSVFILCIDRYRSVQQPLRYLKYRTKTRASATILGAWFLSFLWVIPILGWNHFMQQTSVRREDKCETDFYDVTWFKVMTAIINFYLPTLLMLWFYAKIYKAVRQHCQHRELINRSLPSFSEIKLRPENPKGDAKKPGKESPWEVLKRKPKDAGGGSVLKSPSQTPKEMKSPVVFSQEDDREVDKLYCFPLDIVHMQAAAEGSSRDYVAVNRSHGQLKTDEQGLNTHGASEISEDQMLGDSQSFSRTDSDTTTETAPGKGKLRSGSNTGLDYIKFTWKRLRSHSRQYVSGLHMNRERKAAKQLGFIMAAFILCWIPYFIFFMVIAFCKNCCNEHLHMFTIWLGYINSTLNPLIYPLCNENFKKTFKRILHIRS

Compound	inhibition at 1 µM (CCR3) [%]	Ki (human H1 receptor) [nM]
CN(C[C@@H](O)CN1CCC(Oc2ccc(Cl)c(Cl)c2)CC1)C(=O)c1c[nH]c(=O)c2ccccc12 [Example 52, N-{(2S)-3-[4-(3,4-Dichlorophenoxy)piperidin-1-yl]-2-hydroxypropyl}-N-methyl-1-oxo-1,2-dihydroisoquinoline-4-carboxamide]	95	3.98
CN(C[C@@H](O)CN1CCC(Oc2ccc(Cl)c(Cl)c2)CC1)C(=O)c1n[nH]c2ccccc12 [Example 53, N-{(2S)-3-[4-(3,4-Dichlorophenoxy)piperidin-1-yl]-2-hydroxypropyl}-N-methyl-1H-indazole-3-carboxamide]	105	7.94
Cc1c(Cl)ccc(OC2CCN(C[C@H](O)CNC(=O)c3c[nH]c(=O)c4cc(S(C)(=O)=O)ccc34)CC2)c1Cl [Example 215, N-{(2R)-3-[4-(2,4-Dichloro-3-methylphenoxy)piperidin-1-yl]-2-hydroxypropyl}-7-(methylsulfonyl)-1-oxo-1,2-dihydroisoquinoline-4-carboxamide acetate salt]	103	
CS(=O)(=O)c1ccc2c(C(=O)NC[C@@H](O)CN3CCC(Oc4ccc(C#N)c(Cl)c4)CC3)c[nH]c(=O)c2c1 [Example 206, N-{(2R)-3-[4-(3-Chloro-4-cyanophenoxy)piperidin-1-yl]-2-hydroxypropyl}-7-(methylsulfonyl)-1-oxo-1,2-dihydroisoquinoline-4-carboxamide]	99	
Cc1c(Cl)ccc(OC2CCN(C[C@H](O)CNC(=O)c3c[nH]c(=O)c4ccccc34)CC2)c1Cl [Example 17, N-{(2R)-3-[4-(2,4-Dichloro-3-methylphenoxy)piperidin-1-yl]-2-hydroxypropyl}-1-oxo-1,2-dihydroisoquinoline-4-carboxamide]	103	7.94
N#Cc1ccc(OC2CCN(C[C@H](O)CNC(=O)c3c[nH]c(=O)c4ccccc34)CC2)cc1Cl [Example 197, N-{(2R)-3-[4-(3-Chloro-4-cyanophenoxy)piperidin-1-yl]-2-hydroxypropyl}-1-oxo-1,2-dihydroisoquinoline-4-carboxamide]	103	
O=C(NC[C@@H](O)CN1CCC(Oc2ccc(Cl)c(Cl)c2)CC1)n1c(=O)[nH]c2ccccc21 [Example 45, N-{3-[4-(3,4-Dichlorophenoxy)piperidin-1-yl]-2-hydroxypropyl}-2-oxo-2,3-dihydro-1H-benzimidazole-1-carboxamide]	102	
O=C(NC[C@@H](O)CN1CCC(Oc2ccc(Cl)c(Cl)c2)CC1)c1c[nH]c2ccccc12 [Example 47, N-{(2R)-3-[4-(3,4-Dichlorophenoxy)piperidin-1-yl]-2-hydroxypropyl}-1H-indole-3-carboxamide]	104	7.94
O=C(NC[C@@H](O)CN1CCC(Oc2ccc(Cl)c(Cl)c2)CC1)[C@@H](O)c1ccccc1 [Example 58, (2S)-N-{(2R)-3-[4-(3,4-Dichlorophenoxy)piperidin-1-yl]-2-hydroxypropyl}-2-hyroxy-2-phenylethanamide]	104	63.1
O=C(NC[C@@H](O)CN1CCC(Oc2ccc(Cl)c(Cl)c2)CC1)c1c[nH]c(=O)c2ccccc12 [Example 10, N-{(2R)-3-[4-(3,4-Dichlorophenoxy)piperidin-1-yl]-2-hydroxypropyl}-1-oxo-1,2-dihydroisoquinoline-4-carboxamide]	106	
NC(=O)c1c(OC2CCN(C[C@H](O)CNC(=O)c3c[nH]c(=O)c4ccccc34)CC2)ccc(Cl)c1Cl [Example 132]	101	
Cc1cc(Cl)ccc1OC1CCN(C[C@@H](O)CNC(=O)c2c[nH]c(=O)c3ccccc23)CC1 [Example 186, N-{(2S)-3-[4-(4-Chloro-2-methylphenoxy)piperidin-1-yl]-2-hydroxypropyl}-1-oxo-1,2-dihydroisoquinoline-4-carboxamide acetate salt]	104	12.6
O=C(NC[C@@H](O)CN1CCC(Oc2ccc(Cl)c(Cl)c2)CC1)c1n[nH]c(=O)c2ccccc12 [Example 46, N-{(2R)-3-[4-(3,4-Dichlorophenoxy)piperidin-1-yl]-2-hydroxypropyl}-oxo-3,4-dihydrophthalazine-1-carboxamide]	105	
